Test results from patent publication US20230181535A1, “UBIQUITIN-LIGASE INHIBITORS FOR THE TREATMENT OF CANCER” (FUNDACIÓN PROFESOR NOVOA SANTOS, priority 2020, published 2023).
Entries after “also recorded” stand apart in the source; their conditions may differ.

What was measured:
[1] = target: T1, E3 ubiquitin-ligase Hakai (Mus musculus, UniProt Q9JIY2); assay: In vivo Hakai-dependent ubiquitination assay in 293T cells; type: cell-based; details: vs DMSO
T1 construct: expressed in transfected cells; host or cells: HEK293T
T1 sequence (Q9JIY2 1-491): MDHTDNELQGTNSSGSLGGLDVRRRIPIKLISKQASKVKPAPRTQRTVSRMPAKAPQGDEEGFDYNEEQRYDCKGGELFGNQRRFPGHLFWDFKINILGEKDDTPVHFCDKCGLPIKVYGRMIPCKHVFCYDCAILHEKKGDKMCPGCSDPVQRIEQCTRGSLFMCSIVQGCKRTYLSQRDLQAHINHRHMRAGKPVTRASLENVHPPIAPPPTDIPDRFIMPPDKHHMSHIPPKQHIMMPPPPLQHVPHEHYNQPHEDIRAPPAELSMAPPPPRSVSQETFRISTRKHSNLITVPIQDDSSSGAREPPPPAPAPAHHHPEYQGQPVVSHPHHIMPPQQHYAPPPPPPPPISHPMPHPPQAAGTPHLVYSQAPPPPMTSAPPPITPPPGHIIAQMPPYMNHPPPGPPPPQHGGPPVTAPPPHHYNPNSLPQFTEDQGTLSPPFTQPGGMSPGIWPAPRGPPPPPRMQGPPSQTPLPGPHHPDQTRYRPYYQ
Method: For ubiquitination assays, 750.000 HEK293T cells were seeded in 6-well cell culture plates and after 24 h were transfected with 0.25 μg Src, 0.75 μg Flag-Hakai, and 0.5 μg HA-ubiquitin with Lipofectamin 2000 (Invitrogen, UK). Six hours after transfection cells were treated with indicated concentrations of Hakin-1, Hakin-5 or the rest of the compounds tested for 36 h. Whole cell extracts were obtained in lysis buffer (20 mM Tris-HCl pH 7.5, 150 mM NaCl and 1% Triton X-100) containing 10 μg/ml leupeptin, 10 μg/ml aprotinin and 1 mM phenylmethanesulphonyl fluoride (PMSF), supplemented with 10 mM N-ethylmaleimide. Cells were harvested and subjected to western blotting using anti-HA antibody to detect ubiquitination.

HT-29 cells = assay: Immunofluorescence of E-cadherin, HT-29; type: cell-based, human
Method: For western blot analysis, cells were treated with the indicated inhibitors for 48 h and the whole cell extracts were obtained as described previously. Twenty micrograms of lysates were resolved on a 10% polyacrilamide SDS-PAGE followed by western blot analysis performed as previously described. For immunofluorescence assays cells were grown for 24 h on glass coverslips and treated with the indicated inhibitors for 48 h. Cells were fixed with 4% PFA for 15 min, permeabilized with 0.5% […] and incubated with E-cadherin antibody for 2 h. Coverslips were incubated with fluorescein-tagged secondary antibody (Dakopatts, Sweden) for […]. Finally coverslips were mounted with ProLong Gold antifade reagent (LifeTech, UK) and images were taken in epifluorescence microscope (Olympus) using 40× objective. Immunofluorescence of E-cadherin and DNA content analysis for FIGS. 22-23 were performed culturing of HT-29 human colorectal adenocarcinoma cell line in 384-well plates with densities of 3,000 cells per well in a total volume of 25 μl. After the completion of the staining, four images (2×2 array) of each well were taken with Vala Sciences' SIM™ with a 20× objective. Each image was acquired as a SIM Synthetic Focus with a z-stack range of 6 μm with 1 μm steps. The SIM Synthetic Focus feature will compile a “best focus” images from multiple images. One set of SIM Synthetic Focus images were taken in the DAPI channel for Hoechst 33342 staining, and another set of images were taken in the FITC channel for anti-E-cadherin-AlexaFluor488 labeling and analysed by Structured Illumination Microscopy (SIM™) platform to image the cells and Vala's CyteSeer® Cell-Cell Junction Algorithm to quantify the degree of expression and intracellular location of E-cadherin Vala's CyteSeer® Software can also measure relative DNA content by analyzing Total Integrated Intensity (TII) of the Nuclear Image (Ni) on the Nuclear Mask (Nm). This analysis was performed by Vala Science. Twenty compounds from were assayed in a “blinded” manner, at 2 test concentrations in 6 replicate wells for first assay and 3 replicate for second assay.

HT29 cell line = assay: Invasion assay, HT29 (dose/response); type: cell-based, human; details: for cell invasion: treated 48 h, 1 μM, 10 μM, 50 μM, vs DMSO
Method: [The procedure below names another cell line; the source lists this cell line under the same test.] For invasion assays, cells were treated with Hakin-1 or DMSO as vehicle for 48 h using 1% FBS during the last 24 hours. 3×10^5 MDCK, MDCK-Hakai or LoVo cells were seeded in a cell invasion chamber (Cell invasion assay kit, Chemicon International) containing medium with 2% FBS. After 72 hours for MDCK and MDCK-Hakai Invasive and 16 h for LoVo cells, invasive cells invaded that reach the lower chamber containing 30% FBS were fixed and stained with crystal violet (Sigma Aldrich, St Louis, Mo.) following the manufacturer's specifications. For migration assays, HT29 cells were cultured with Hakin-1 or DMSO as vehicle for 48 h, using medium without serum the last 24 h. In the cell migration chamber were seeded 3×10^5 HT29 cells (Cell migration kit, Millipore, Bedford, Mass.) containing medium without serum. After 16 h, migrated cells in the lower chamber containing serum with 30% FBS were stained with crystal violet and counted following the manufacturer's specifications. For both invasion and migration assays cells were counted in five fields photographed with an Olympus microscope using a 20× objective, experiments were performed in triplicates for each condition and the assays were repeated at least three times. Results are expressed as mean±SD.

[2] = tested on: human cryopreserved hepatocytes; assay: Hepatocyte stability, human; type: in vitro ADME; details: 3 μM
Method: Test compound (final substrate concentration 3 μM; final DMSO concentration 0.25%) were pre-incubated at 37° C., prior to the addition of a suspension of cryopreserved hepatocytes (final cell density 0.5×10^6 viable cells/mL in Williams E media supplemented with 2 mM L glutamine and 25 mM HEPES) to initiate the reaction. The reactions were stopped with acetonitrile containing internal standard at the appropriate time points ([…]). The termination plates were centrifuged at 2500 rpm at 4° C. for 30 minute to precipitate the protein. Following the hepatocyte stability assays, the samples were utilized for metabolite profiling. Hepatocyte stability in mouse and human was performed by using the incubation of tested compound (3 μM) with cryopreserved hepatocytes in suspension. Samples were removed at 6 time points over the course of a 60 min experiment and remaining test compound at each time point was analysed by using LC-MS/MS. Then, data was analysed and an intrinsic clearance (CLint) with standard error and half-life (t½) reported.

Row | IC50 (HT29 cell line; Homo sapiens, HT-29, treated 48 h, read-out: concentration at which 50% inhibition of invasion was achieved) [µM] | SMILES | Hakai-induced ubiquitination ([1]; HEK293T cells transfected with Hakai and ubiquitin) | E-cadherin expression at cell-cell contacts (immunofluorescence, Image J) (HT-29 cells; 48 hours, 5-100 μM, vs DMSO vehicle control) | cell invasion (HT29 cell line) | compound remaining after 60 min [2] | Hakai protein levels ([1]; 293T cells transfected with Src, Flag-Hakai and HA-ubiquitin) | ubiquitination mediated by Hakai ([1]; 293T cells transfected with Src, Flag-Hakai and HA-ubiquitin, western blotting anti-HA) | E-cadherin levels at cell-cell contacts (immunofluorescence) (HT-29 cells; 48 h, vs DMSO)
1 | ~1 | O=C(O)c1ccc(-n2nnnc2SCC(O)c2ccc([N+](=O)[O-])cc2)cc1 (stereo not shown) [MKH1] | reduced ubiquitination at 20 μM and 100 μM | significantly increase expression of E-cadherin | reduce cell invasion | 95%-100% |  |  | 
2 |  | O=C(O)c1ccc(-n2nnnc2SCC(=O)c2ccc([N+](=O)[O-])cc2)cc1 [Hakin-1, 4-(5-[2-(4-nitrophenyl)-2-oxoethyl]thiol-1H-tetrazol-1-yl)benzoic acid] |  |  | reduce cell invasion | 77.3% | no effect was seen in Hakai protein levels; also recorded: without affecting Hakai protein levels | strongly reduces the ubiquitination mediated by Hakai in a doses dependent-manner; also recorded: specific inhibitor for Hakai-mediated ubiquitination | significant increase E-cadherin levels at cell-cell contacts
